Holding throughout (assay type): biochemical
The subject of assay [1] is FMN riboswitch (B. subtilis ribDEAHT operon). Put plainly: FMN riboswitch-mediated in vitro transcription termination assay, [α-33P]-ATP radiometric detection. On the procedure: The FMN riboswitch within the leader sequence of the B. subtilis ribDEAHT operon was amplified by PCR from B. subtilis strain 168 (Bacillus Genetic Stock Center—designation 1A1). PCR of a B. subtilis genomic preparation is performed using Platinum® Taq DNA Polymerase High Fidelity from Invitrogen (catalog #11304-011) and the sense PCR and the antisense polyA PCR primers (SEQ ID: NO 1 and 2, or SEQ ID: NO 1 and 3, respectively, as shown in table below). […] These overhangs allow the ligation of DNA into the pCR®2.1-TOPO® vector using a TOPO TA Cloning® kit (Invitrogen catalog #K4500-01). Following transformation, colonies that contained disrupted β-galactosidase are picked and grown overnight. Correct insertion and orientation of PCR product are verified by restriction analysis and sequencing. PCR of the resulting clone is used to generate DNA sequences for use in in vitro transcription termination assays. […]
Synthetic DNA primers and a biotinylated oligo (dT) may be obtained from the Keck Foundation Biotechnology Resource Center at Yale University. […] 50 μl of Microscint™PS (PerkinElmer, catalog #6013631) are then added to wells and the plate is read in a TopCount®NXT™ microplate scintillation and luminescence counter (PerkinElmer). Other readers and counters may be also be used. […]

Assay [2] shares this test system. Put plainly: FMN riboswitch-mediated in vitro transcription termination assay, RiboGreen fluorescence detection. Particulars: FIG. 14; RNA binding fluorophore (RiboGreen) detection, 10 μM each rNTP, 3 mM Mg2+, 4-hour reaction.
Assay [3] deals with TPP riboswitch (B. subtilis tenA operon). Put plainly: TPP riboswitch-mediated in vitro transcription termination assay, RiboGreen fluorescence detection. The conditions noted are these: FIG. 15; RNA binding fluorophore (RiboGreen) detection, 5 μM each rNTP, 2 mM Mg2+, 3-hour reaction.
Experimental: In vitro plate-based transcription assay: In vitro transcription reactions are carried out at 25° C. in a total reaction volume of 50 μL. Reactions are performed in Reacti-Bind™ Streptavidin High Binding Capacity Coated 96-Well Plates (Pierce, catalog #15502) in assay buffer at a final concentration of 20 mM HEPES at pH 8.0, 60 mM KCl, 0.1 mM EDTA, and 0.005% BSA. To prepare plates, wells are washed three times with successive addition and aspiration of wash buffer containing 25 mM Tris-HCl at pH 7.4 and 150 mM NaCl. Each well is then given assay buffer, followed by addition of FMN into control wells or DMSO into test wells. Enzyme mixture containing sigma-saturated E. coli polymerase (Epicentre Biotechnologies, catolog #S90250) was then added to all wells. The reaction was initiated by the addition of a start mix containing ribonucleotides (Promega, Catalog #P1300), biotinylated oligo (dT)25, magnesium, [α-^33P]-labeled ATP and DNA sequence. […] 50 μl of Microscint™PS (PerkinElmer, catalog #6013631) are then added to wells and the plate is read in a TopCount®NXT™ microplate scintillation and luminescence counter (PerkinElmer). […]
Another assay has as its target T1, E. coli RNA polymerase (Escherichia coli, UniProt P0A8V2).
T1 construct: purchased Epicentre Biotechnologies S90250
As to the kind of experiment: In vitro plate-based transcription assay, inhibition of RNA polymerase activity (radiometric). Particulars: FIG. 10; 12.5 μM each rNTP, 2.5 mM Mg2+, 0.1 Unit RNA polymerase; read-out: IC50 value for inhibition of the in vitro transcription reaction. On the procedure:
Synthetic DNA primers and a biotinylated oligo (dT) may be obtained from the Keck Foundation Biotechnology Resource Center at Yale University. Flavin mononucleotide (FMN) may be purchased from Fluka BioChemika (catalog #83810). [α-^33P] labeled Adenosine 5′ triphosphate was acquired from American Radiolabeled Chemicals, Inc. (catalog #ARP0131). In vitro plate-based transcription assay: In vitro transcription reactions are carried out at 25° C. in a total reaction volume of 50 μL. […] 50 μl of Microscint™PS (PerkinElmer, catalog #6013631) are then added to wells and the plate is read in a TopCount®NXT™ microplate scintillation and luminescence counter (PerkinElmer). Other readers and counters may be also be used.
The antibacterial rifampin is an RNA polymerase inhibitor (Liu, J., Feldman, P. A., Lippy, J. S., Bobkova, K., Kurilla, M. G, and Chung, T. D. Y., 2001 Analytical Biochemistry, 289, 239-245, Fujii, K., Saito, H., Tomioka, H., Mae, and T., Hosoe, K., 1995 Antimicrobial Agents and Chemotherapy, 39, 1489-1492, Morris, A. B., Brown, R. B., and Sands, M., 1993 Antimicrobial Agents and Chemotherapy 37, 1-7). Rifampin is titrated to inhibit in vitro transcription reaction and its inhibitory IC50 value is determined (FIG. 10). […]

T1 sequence (P0A8V2 whole entry): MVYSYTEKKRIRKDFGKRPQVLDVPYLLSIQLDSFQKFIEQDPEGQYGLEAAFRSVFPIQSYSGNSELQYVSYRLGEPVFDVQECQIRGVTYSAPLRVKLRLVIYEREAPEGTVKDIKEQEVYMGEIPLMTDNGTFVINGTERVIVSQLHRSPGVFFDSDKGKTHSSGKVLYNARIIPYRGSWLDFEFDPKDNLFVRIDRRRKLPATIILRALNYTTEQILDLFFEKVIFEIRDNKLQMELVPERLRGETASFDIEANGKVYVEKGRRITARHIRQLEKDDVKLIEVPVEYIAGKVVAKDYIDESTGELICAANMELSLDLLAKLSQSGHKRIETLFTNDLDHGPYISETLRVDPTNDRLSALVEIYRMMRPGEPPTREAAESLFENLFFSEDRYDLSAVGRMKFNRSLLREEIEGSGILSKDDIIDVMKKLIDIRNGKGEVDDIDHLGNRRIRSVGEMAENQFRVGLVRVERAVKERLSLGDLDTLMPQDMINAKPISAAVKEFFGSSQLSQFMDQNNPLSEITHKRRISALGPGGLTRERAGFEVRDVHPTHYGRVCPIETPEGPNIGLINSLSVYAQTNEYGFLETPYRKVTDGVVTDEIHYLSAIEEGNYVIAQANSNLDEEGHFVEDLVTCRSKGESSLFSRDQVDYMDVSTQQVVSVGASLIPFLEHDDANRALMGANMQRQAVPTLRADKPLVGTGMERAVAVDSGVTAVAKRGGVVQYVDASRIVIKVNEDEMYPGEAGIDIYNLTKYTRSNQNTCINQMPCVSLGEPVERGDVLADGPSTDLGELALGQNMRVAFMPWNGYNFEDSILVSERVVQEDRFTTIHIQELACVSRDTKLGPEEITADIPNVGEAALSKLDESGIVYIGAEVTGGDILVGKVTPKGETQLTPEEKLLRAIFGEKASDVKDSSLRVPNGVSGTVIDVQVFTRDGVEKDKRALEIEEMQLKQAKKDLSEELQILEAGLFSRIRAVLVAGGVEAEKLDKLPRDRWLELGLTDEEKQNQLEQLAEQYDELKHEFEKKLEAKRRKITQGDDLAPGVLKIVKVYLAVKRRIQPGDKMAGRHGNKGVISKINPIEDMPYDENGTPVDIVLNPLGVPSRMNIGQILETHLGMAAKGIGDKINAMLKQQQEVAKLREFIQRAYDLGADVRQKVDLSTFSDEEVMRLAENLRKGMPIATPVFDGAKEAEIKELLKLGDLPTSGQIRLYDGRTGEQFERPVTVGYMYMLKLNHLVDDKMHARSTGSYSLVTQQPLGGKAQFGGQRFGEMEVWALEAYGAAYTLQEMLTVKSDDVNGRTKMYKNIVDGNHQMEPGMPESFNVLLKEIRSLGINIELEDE
T1 sequence (P0A8T7 whole entry partner): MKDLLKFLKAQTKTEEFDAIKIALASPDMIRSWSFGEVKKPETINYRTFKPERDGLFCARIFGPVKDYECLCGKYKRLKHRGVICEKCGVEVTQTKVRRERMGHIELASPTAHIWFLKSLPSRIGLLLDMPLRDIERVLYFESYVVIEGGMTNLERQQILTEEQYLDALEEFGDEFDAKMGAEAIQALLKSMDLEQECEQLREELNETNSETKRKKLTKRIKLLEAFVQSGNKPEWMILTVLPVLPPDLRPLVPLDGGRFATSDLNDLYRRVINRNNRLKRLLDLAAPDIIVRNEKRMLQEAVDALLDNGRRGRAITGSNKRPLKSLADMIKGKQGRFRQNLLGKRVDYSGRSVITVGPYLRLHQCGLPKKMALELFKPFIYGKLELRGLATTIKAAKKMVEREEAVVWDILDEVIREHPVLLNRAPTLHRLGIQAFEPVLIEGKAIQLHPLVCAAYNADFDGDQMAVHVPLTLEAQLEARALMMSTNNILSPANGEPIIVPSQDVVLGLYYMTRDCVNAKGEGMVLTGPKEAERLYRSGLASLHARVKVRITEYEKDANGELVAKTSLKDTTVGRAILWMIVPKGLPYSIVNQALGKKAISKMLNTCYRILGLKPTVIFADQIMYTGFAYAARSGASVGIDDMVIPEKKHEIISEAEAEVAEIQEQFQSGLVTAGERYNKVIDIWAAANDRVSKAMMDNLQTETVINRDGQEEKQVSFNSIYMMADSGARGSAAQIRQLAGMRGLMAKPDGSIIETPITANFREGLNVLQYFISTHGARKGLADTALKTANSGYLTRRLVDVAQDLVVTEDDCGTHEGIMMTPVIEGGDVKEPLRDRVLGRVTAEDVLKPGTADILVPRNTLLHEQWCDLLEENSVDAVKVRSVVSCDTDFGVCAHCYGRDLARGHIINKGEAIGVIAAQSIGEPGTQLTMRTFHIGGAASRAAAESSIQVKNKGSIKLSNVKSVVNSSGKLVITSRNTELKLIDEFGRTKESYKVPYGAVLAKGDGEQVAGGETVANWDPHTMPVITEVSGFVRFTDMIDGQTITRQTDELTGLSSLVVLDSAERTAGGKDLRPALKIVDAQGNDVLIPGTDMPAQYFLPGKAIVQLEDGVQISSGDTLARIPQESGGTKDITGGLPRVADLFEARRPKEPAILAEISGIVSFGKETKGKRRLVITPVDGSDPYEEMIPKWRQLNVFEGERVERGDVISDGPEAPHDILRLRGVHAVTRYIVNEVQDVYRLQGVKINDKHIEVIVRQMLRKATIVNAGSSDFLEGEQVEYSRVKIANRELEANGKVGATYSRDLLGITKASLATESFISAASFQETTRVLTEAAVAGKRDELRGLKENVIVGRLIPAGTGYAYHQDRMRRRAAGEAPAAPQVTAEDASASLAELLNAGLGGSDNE
T1 sequence (P0A7Z4 whole entry partner): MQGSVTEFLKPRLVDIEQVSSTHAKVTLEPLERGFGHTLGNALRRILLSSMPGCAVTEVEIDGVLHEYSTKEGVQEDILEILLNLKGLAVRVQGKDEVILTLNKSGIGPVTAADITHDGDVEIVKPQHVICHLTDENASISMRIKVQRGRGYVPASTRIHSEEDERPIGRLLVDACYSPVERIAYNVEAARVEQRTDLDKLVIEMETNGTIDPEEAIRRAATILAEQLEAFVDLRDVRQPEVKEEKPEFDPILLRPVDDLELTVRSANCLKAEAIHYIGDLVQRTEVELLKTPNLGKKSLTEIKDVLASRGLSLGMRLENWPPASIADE
T1 sequence (P0A800 2-91 partner limits assumed): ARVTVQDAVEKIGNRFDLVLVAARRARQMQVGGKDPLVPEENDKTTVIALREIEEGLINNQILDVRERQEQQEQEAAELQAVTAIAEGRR
T1 sequence (P00579 whole entry partner): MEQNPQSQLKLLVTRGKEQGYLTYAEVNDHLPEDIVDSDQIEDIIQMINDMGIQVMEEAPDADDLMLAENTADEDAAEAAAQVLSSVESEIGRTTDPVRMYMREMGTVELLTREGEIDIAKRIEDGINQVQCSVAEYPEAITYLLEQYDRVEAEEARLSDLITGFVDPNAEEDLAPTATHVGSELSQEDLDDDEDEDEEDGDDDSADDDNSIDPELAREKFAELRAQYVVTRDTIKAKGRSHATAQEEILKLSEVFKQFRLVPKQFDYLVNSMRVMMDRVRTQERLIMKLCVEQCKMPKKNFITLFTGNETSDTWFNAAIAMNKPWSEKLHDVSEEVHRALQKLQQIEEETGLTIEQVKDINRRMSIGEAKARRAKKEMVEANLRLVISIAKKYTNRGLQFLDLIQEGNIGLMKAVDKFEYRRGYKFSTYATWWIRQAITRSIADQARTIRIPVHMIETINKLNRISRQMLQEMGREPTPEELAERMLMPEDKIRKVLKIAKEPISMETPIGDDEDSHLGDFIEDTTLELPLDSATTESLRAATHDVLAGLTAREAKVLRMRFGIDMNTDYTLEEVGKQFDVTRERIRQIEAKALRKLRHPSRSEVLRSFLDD

On to `Cc1cc2nc3c(=O)[nH]c(=O)nc-3n(C[C@H](O)[C@H](O)[C@H](O)COP(=O)(O)O)c2cc1C` [FMN, Flavin mononucleotide], for which, in assay [1] (FIG. 5A, 100 μM FMN versus no FMN, DNA sequence encoding a polyA sequence), the “Signal (cpm) of captured polyA full-length transcript” value is listed as “significant decrease in signal”. For the same compound, the IC50 stood at 0.045 µM in assay [1] (FIG. 11, 12.5 μM each rNTP, 2.5 mM Mg2+, 0.1 Unit RNA polymerase, radiolabel detection) and 0.116 µM in assay [2].
Compound `Cc1ncc(C[n+]2csc(CCOP(=O)(O)O)c2C)c(N)n1` [TMP, Thiamine monophosphate] returned an IC50 in assay [3] above 25 µM.
The same measure, in the same setting: the result for `Cc1ncc(C[n+]2csc(CCO[P@](=O)(O)OP(=O)(O)O)c2C)c(N)n1` [TPP, Thiamine pyrophosphate] reads 0.17 µM.
Turning to `CO[C@H]1/C=C/O[C@@]2(C)Oc3c(C)c(O)c4c(O)c(c(/C=N/N5CCN(C)CC5)c(O)c4c3C2=O)NC(=O)/C(C)=C\C=C\[C@H](C)[C@H](O)[C@@H](C)[C@@H](O)[C@@H](C)[C@H](OC(C)=O)[C@@H]1C` [rifampin], the IC50 on E. coli RNA polymerase is 0.0082 µM.
With `Cc1cc2nc3c(=O)[nH]c(=O)nc-3n(C[C@H](O)[C@H](O)[C@H](O)CO)c2cc1N(C)C` [roseoflavine, roseoflavin], in assay [2], the IC50 is above 100 µM.
